System: mTORC1 signaling
Test: MEF TSC1−/− cell-based assay for rapalog potency (pS6)
Design: species or system Mouse
Conditions: MEF TSC1−/− cells, average from multiple assays
Experimental: Cell-based assay for rapalog potency determination. Rapalog potency was determined using MEF TSC1−/− cell based assay. MEF TSC1−/− cells are Mouse Embryonic Fibroblasts deficient in Tuberous sclerosis protein—TSC1, which negatively regulates mTORC1 signaling and thus display constitutive mTORC1 activation, resulting in phosphorylation (activation) of downstream molecules. This cell-based assay is used to measure inhibition (de-phosphorylation) of S6 and 4EBP1 by rapalogs or other mTOR inhibitors.
MEF TSC1−/− cells were plated on Poly-D-lysine coated 384 well Griener clear bottom plates and incubated overnight at 37° C., 5% CO2. […] Nuclei were visualized with Hoechst (ThermoFisher Scientific #H3570) staining. Cells were imaged (InCell 600) using respective fluorescence channels and the potency of mTOR inhibitors was defined by pS6 IC50 (nM).
In vitro potency of mTOR inhibitors was defined by pS6 IC50 (nM) in MEF TSC1−/− cells.

CO[C@@H]1C[C@H](C[C@@H](C)[C@@H]2CC[C@H](C)/C=C(\C)[C@@H](O)[C@@H](OC)C(=O)[C@H](C)C[C@H](C)/C=C/C=C/C=C(\C)C(N3CCC3=O)C[C@@H]3CC[C@@H](C)[C@@](O)(O3)C(=O)C(=O)N3CCCC[C@H]3C(=O)O2)CC[C@H]1O (single isomer, unassigned) [Example 3]
IC50 (Mus musculus): 1.45 nM

CO[C@@H]1C[C@H](C[C@@H](C)[C@@H]2CC[C@H](C)/C=C(\C)[C@@H](O)[C@@H](OC)C(=O)[C@H](C)C[C@H](C)/C=C/C=C/C=C(\C)C(N3CCN(C)C3=O)C[C@@H]3CC[C@@H](C)[C@@](O)(O3)C(=O)C(=O)N3CCCC[C@H]3C(=O)O2)CC[C@H]1O (single isomer, unassigned) [Example 4, C16-(3-methylimidazolidin-2-one-1-yl)-C32-deoxo-rapamycin]
IC50 (Mus musculus): > 500 nM

CO[C@@H]1C[C@H](C[C@@H](C)[C@@H]2CC[C@H](C)/C=C(\C)[C@@H](O)[C@@H](OC)C(=O)[C@H](C)C[C@H](C)/C=C/C=C/C=C(\C)C(N3CCN(CCO)C3=O)C[C@@H]3CC[C@@H](C)[C@@](O)(O3)C(=O)C(=O)N3CCCC[C@H]3C(=O)O2)CC[C@H]1O (single isomer, unassigned) [Example 5]
IC50 (Mus musculus): 153 nM

CO[C@@H]1C[C@H](C[C@@H](C)[C@@H]2CC[C@H](C)/C=C(\C)[C@@H](O)[C@@H](OC)C(=O)[C@H](C)C[C@H](C)/C=C/C=C/C=C(\C)C(N3CCS3(=O)=O)C[C@@H]3CC[C@@H](C)[C@@](O)(O3)C(=O)C(=O)N3CCCC[C@H]3C(=O)O2)CC[C@H]1OP(C)(C)=O (single isomer, unassigned) [Example 11, C16-(1,1-dioxido-1,2-thiazetidin-2-yl)-C32-deoxo-C40-dimethylphosphinyl-rapamycin]
IC50 (Mus musculus): 3.33 nM

CO[C@@H]1C[C@H](C[C@@H](C)[C@@H]2CC[C@H](C)/C=C(\C)[C@@H](O)[C@@H](OC)C(=O)[C@H](C)C[C@H](C)/C=C/C=C/C=C(\C)C(N3CCS3(=O)=O)C[C@@H]3CC[C@@H](C)[C@@](O)(O3)C(=O)C(=O)N3CCCC[C@H]3C(=O)O2)CC[C@@H]1n1cnnn1 (single isomer, unassigned) [Example 12]
IC50 (Mus musculus): 0.374 nM

CO[C@@H]1C[C@H](C[C@@H](C)[C@@H]2CC[C@H](C)/C=C(\C)[C@@H](O)[C@@H](OC)C(=O)[C@H](C)C[C@H](C)/C=C/C=C/C=C(\C)C(N3CCCS3(=O)=O)C[C@@H]3CC[C@@H](C)[C@@](O)(O3)C(=O)C(=O)N3CCCC[C@H]3C(=O)O2)CC[C@H]1OP(C)(C)=O (single isomer, unassigned) [Example 15, C16-(1,1-dioxidoisothiazolidin-2-yl)-C32-deoxo-C40-dimethylphosphinyl-rapamycin]
IC50: 3.2 nM

CO[C@@H]1C[C@H](C[C@@H](C)[C@@H]2CC[C@H](C)/C=C(\C)[C@@H](O)[C@@H](OC)C(=O)[C@H](C)C[C@H](C)/C=C/C=C/C=C(\C)C(N3CCCS3(=O)=O)C[C@@H]3CC[C@@H](C)[C@@](O)(O3)C(=O)C(=O)N3CCCC[C@H]3C(=O)O2)CC[C@@H]1n1cnnn1 (single isomer, unassigned) [Example 17]
IC50 (Mus musculus): 1.1 nM

CCOCCO[C@@H]1CC[C@@H](C[C@@H](C)[C@@H]2CC[C@H](C)/C=C(\C)[C@@H](O)[C@@H](OC)C(=O)[C@H](C)C[C@H](C)/C=C/C=C/C=C(\C)C(N3CCCS3(=O)=O)C[C@@H]3CC[C@@H](C)[C@@](O)(O3)C(=O)C(=O)N3CCCC[C@H]3C(=O)O2)C[C@H]1OC (single isomer, unassigned) [Example 18, C16-(1,1-dioxidoisothiazolidin-2-yl)-C32-deoxo-C40-(2-ethoxyethoxy)-rapamycin]
IC50 (Mus musculus): 1.55 nM

CO[C@H]1C[C@@H]2CC[C@@H](C)[C@@](O)(O2)C(=O)C(=O)N2CCCC[C@H]2C(=O)O[C@H]([C@H](C)C[C@@H]2CC[C@@H](O)[C@H](OC)C2)CC[C@H](C)/C=C(\C)[C@@H](O)[C@@H](OC)C(=O)[C@H](C)C[C@H](C)/C=C/C=C/C=C/1C [Intermediate 1, C32-deoxo-rapamycin, reference compound]
IC50 (Mus musculus): 0.092 nM

From patent US12091424B2, “Rapamycin derivatives” (NOVARTIS AG, priority 2017, dated 2024)
